Assay results published in paper PMC7400207, “It Takes Two: Dimerization Is Essential for the Broad-Spectrum Predatory and Defensive Activities of the Venom Peptide Mp1a from the Jack Jumper Ant Myrmecia pilosula” (Biomedicines, 2020).
Marks after values point to notes of the source that are not given here. Where no end group is shown, it is not given here.

How the values were obtained:
F11 cells = assay: FLIPR calcium assay, activation of F11 cells; assay type: cell-based; settings: F11 cells, FLIPR
Procedure: F11 cells were cultured as previously described. Cells were maintained on Ham’s F12 media supplemented with 10% fetal bovine serum (FBS), 100 µM hypoxanthine, 0.4 µM aminopterin, and 16 µM thymidine (Hybri-MaxTM, Sigma Aldrich, North Ryde, Australia). Then, 384-well imaging plates (Corning) were seeded 48 h prior to imaging resulting in 90–95% confluence at imaging. Cells were incubated for 30 min with the Calcium 4 assay component A according to the manufacturer’s instructions (Molecular Devices, Sunnyvale, CA, USA) in physiological salt solution (PSS; composition in mM: 140 NaCl, 11.5 D-glucose, 5.9 KCl, 1.4 MgCl2, 1.2 NaH2PO4, 5 NaHCO3, 1.8 CaCl2, 10 HEPES) at 37°C. Fluorescence was measured using a fluorescent imaging plate reader (FLIPR^TETRA) equipped with a CCD camera (Excitation: 470–490 nm, Emission: […]) (Molecular Devices, Sunnyvale, CA, USA). Signals were read every second for 10 s before, and 300 s after the addition of peptides in PSS supplemented with 0.1% bovine serum albumin. All data are the mean ± SEM of assays performed in triplicate. Maximum–minimum fluorescence in the 300 s period after peptide addition was recorded as the response. Concentration–response data were fitted with a four-parameter Hill equation (variable slope) using GraphPad Prism 8 to obtain effective concentration (EC50) values.

[1] = test system: mouse dorsal root ganglion (DRG) cells; assay: Calcium imaging of mammalian sensory neurons; assay type: cell-based; settings: 1 µM peptide, Fluo-4 calcium imaging, neuronal and non-neuronal cells
Procedure: Calcium imaging of a heterogenous population of mouse dorsal root ganglion (DRG) sensory neurons was performed as previously described. In brief, dorsal root ganglion (DRG) cells isolated from 4–8-week-old male C57BL/6 mice under ethics approval TRI/IMB/093/17 (University of Queensland Animal Ethics Committee, approval date 31/03/2017) were dissociated and then plated in Dulbecco’s modified Eagle’s medium (Gibco, Grand Island, NY, USA) containing 10% fetal bovine serum (FBS; Assaymatrix, Melbourne, Australia) and penicillin/streptomycin (Gibco) on a 96-well poly-D-lysine–coated culture plate (Corning, Lowell, MA, USA), and maintained overnight. Cells were loaded with Fluo-4 AM calcium indicator as per the manufacturer’s instructions (Thermo Fisher Scientific, Grand Island, NY, USA). After loading for 1 h, the dye solution was replaced with assay solution (Hanks’ balanced salt solution and 20 mM HEPES). Fluorescence corresponding to intracellular calcium ([Ca^2+]i) of typically 100–150 DRG cells per experiment was monitored in parallel using a Nikon Ti-E deconvolution inverted microscope, equipped with a Lumencor Spectra LED light source. Images were acquired at a 20× objective at one frame/s (excitation 485 nm; emission 521 nm). For each experiment, baseline fluorescence was monitored for 30 s and then a wash of assay solution was applied.

Drosophila melanogaster [2] = assay: Drosophila melanogaster microinjection assay; assay type: in vivo; settings: intrathoracic injection, 50 nL, adult female flies, lethality at 24 h; three dose-response curves, ± SEM
Procedure: The insecticidal activity of the chemically synthesized 1a and analogues thereof were determined by injection into adult female D. melanogaster aged 3–5 days (mass 0.7–0.9 mg) as described previously. Analogues were dissolved in water and intrathoracically injected using pulled glass capillaries at a volume of 50 nL per fruit fly, and the results were compared against an equivalent injection volume of water alone. All injections were performed in the morning or early afternoon. At 24 h post-injection flies were monitored for lethality. Dose–response curves were constructed using 7–10 doses per analogue (each dose tested in eight flies) and three separate dose–response curves were constructed for each analogue. The lethality in the groups receiving the analogues were adjusted using the respective control group lethality using the Henderson-Tilton formula [20]. The median lethal dose (LD50) of each analogue was calculated based on the three dose–response curves using GraphPad Prism 8.0 [21]. One-way ANOVA followed by Dunnett’s multiple comparison test were used to compare LD50 values.

trypanosomes = settings: cited from earlier work
From the text: However, the anthelmintic activity of the dimers was only observed at concentrations 10-fold higher than required for neuronal cell activation, cytotoxicity and hemolysis.

Drosophila melanogaster [3] = settings: same assay; cited from earlier work

## CC[C@H](C)[C@H](N)C(=O)N[C@@H](CC(=O)O)C(=O)N[C@@H](Cc1c[nH]c2ccccc12)C(=O)N[C@@H](CCCCN)C(=O)N[C@@H](CCCCN)C(=O)N[C@H](C(=O)N[C@@H](CC(=O)O)C(=O)N[C@@H](Cc1c[nH]c2ccccc12)C(=O)N[C@@H](CCCCN)C(=O)N[C@@H](CCCCN)C(=O)N[C@H](C(=O)N[C@@H](CO)C(=O)N[C@@H](CCCCN)C(=O)N[C@@H](CCCCN)C(=O)N[C@H](C(=O)N[C@H]1CSSC[C@@H](C(=O)N[C@@H](CCCCN)C(=O)N[C@@H](Cc2ccccc2)C(=O)N[C@@H](CC(C)C)C(N)=O)NC(=O)[C@H](C)NC(=O)[C@H](CCCCN)NC(=O)[C@H](CC(C)C)NC(=O)[C@H](CCSC)NC(=O)[C@H](C(C)C)NC(=O)[C@H](CCCCN)NC(=O)[C@@H](NC(=O)[C@@H](NC(=O)[C@H](CCCCN)NC(=O)[C@H](CCCCN)NC(=O)[C@H](CO)NC(=O)[C@@H](NC(=O)[C@H](CCCCN)NC(=O)[C@H](CCCCN)NC(=O)[C@H](Cc2c[nH]c3ccccc23)NC(=O)[C@H](CC(=O)O)NC(=O)[C@@H](NC(=O)[C@H](CCCCN)NC(=O)[C@H](CCCCN)NC(=O)[C@H](Cc2c[nH]c3ccccc23)NC(=O)[C@H](CC(=O)O)NC(=O)[C@@H](N)[C@@H](C)CC)C(C)C)C(C)C)[C@@H](C)O)CSSC[C@@H](C(=O)N[C@@H](CCCCN)C(=O)N[C@@H](Cc2ccccc2)C(=O)N[C@@H](CC(C)C)C(N)=O)NC(=O)[C@H](C)NC(=O)[C@H](CCCCN)NC(=O)[C@H](CC(C)C)NC(=O)[C@H](CCSC)NC(=O)[C@H](C(C)C)NC(=O)[C@H](CCCCN)NC1=O)[C@@H](C)O)C(C)C)C(C)C [Analogue 5a]
F11 cells
  Concentration at which cytolysis (rapid increase in fluorescence followed by decrease to or below baseline) was observed: ≥ 10 µM
[1]
  Effect on [Ca2+]i of DRG cells: activated all DRG cells and caused dye leakage
Drosophila melanogaster [2]
  Insecticidal Activity (LD50): 415.4 ± 29.6 ^a pmol/g

## cupiennin-1a: broadly cytolytic peptide from the wandering spider Cupiennius salei (GFGALFKFLAKKVAKTVAKQAAKQGAKYVVNKQME; ends and bridges not checked; UniProt P83619 1-35, looked up)
trypanosomes
  Selectivity for trypanosomes over human red blood cells: > 400 fold

## β-diguetoxin-Dc1a
Drosophila melanogaster [3]
  LD50 (insecticidal potency): 59 pmol/g

## ω-hexatoxin-Hv1a
Drosophila melanogaster [3]
  LD50 (insecticidal potency): 9 pmol/g
